Key:
[1] = Comparative plasma PK of Int 1-4 versus gemcitabine in mouse (study a); type: in vivo; details: plasma, CD-1 mice; for MRT inf: read-out: MRT0-inf; for MRT last: read-out: MRT0-last
[2] = Int 1-4 plasma PK in the male cynomolgus monkey (study f); type: in vivo; details: for C0: read-out: C0; for MRT inf: read-out: MRT0-inf; for MRT last: read-out: MRT0-last; for Vd: read-out: Vdss
Experimental: Objectives: to compare the plasma pharmacokinetics and stability of Int 1-4 in plasma following single intravenous infusion administration of Int 1-4 at 5 mg/kg and 10 mg/kg in the male cynomolgus monkey
PK measurements: compare PK parameters C0, CL, Vdss, Cmax, tmax, t, AUC(0-t), AUC(0-inf), MRT(0-t), MRT(0-inf) for Int 1-4

[3] = Int 1-4 and gemcitabine comparative PK in male cynomolgus monkey (study g); type: in vivo; details: plasma, male cynomolgus monkey; for AUC(0-inf): read-out: AUC0-inf; for MRT inf: read-out: MRT0-inf; for MRT last: read-out: MRT0-last; for Vd: read-out: Vdss
Experimental: Objectives: to compare the plasma pharmacokinetics and stability of Int 1-4 versus gemcitabine in plasma following single intravenous infusion administration of Int 1-4 at 5 mg/kg and 10 mg/kg with equimolar gemcitabine at 2.65 mg/kg and 5.29 mg/kg in male cynomolgous monkeys
PK measurements: compare PK parameters C0, CL, Vdss, Cmax, tmax, t1/2, AUC(0-t), AUC(0-inf), MRT(0-t), MRT(0-inf) for Int 1-4 with gemcitabine

[4] = Comparative PK of Int 1-4 versus gemcitabine in rat plasma (study i); type: in vivo, Sprague-Dawley rats; details: for half-life: Sprague-Dawley, rat, iv; for MRT inf: read-out: MRT0-inf; for MRT last: read-out: MRT0-last
From the text: PK measurements: compare PK parameters C0, CL, Vdss, Cmax, tmax, t1/2, AUC(0-t), AUC(0-inf), MRT(0-t), MRT(0-inf) for Int 1-4 and gemcitabine.

[5] = Comparative plasma PK of Compound 1 versus Int 1-4 in male CD-1 mice (study b); type: in vivo; details: male, CD-1, mouse, iv
Experimental: Objectives: to compare the plasma pharmacokinetics and stability of Compound 1 with its non-phosphorylated SMDC analog (Int 1-4) and in plasma following a single intravenous infusion administration of Compound 1 at 11.6 mg/kg and 23.2 mg/kg with Int 1-4 (formulation F1 & F2) at 10.0 mg/kg in male CD-1 mice
PK measurements: compare PK parameters C0, CL, Vdss, Cmax, tmax, t1/2, AUC(0-t), AUC(0-inf), MRT(0-t), MRT(0-inf) for Compound 1 and Int 1-4

[6] = Compound 1 and gemcitabine plasma PK in the male cynomolgus monkey (study h); type: in vivo; details: plasma; for AUC(0-inf): read-out: AUC0-inf; for MRT inf: read-out: MRT0-inf; for MRT last: read-out: MRT0-last
Experimental: Objectives: to compare the plasma pharmacokinetics and stability of the Compound 1 with Int 1-4 and in plasma following a single intravenous infusion administration of Compound 1 at 5 mg/kg and 10 mg/kg with equimolar gemcitabine at 2.28 mg/kg in male cynomolgous monkeys.
PK measurements: compare PK parameters C0, CL, Vdss, Cmax, tmax, t1/2, AUC(0-t), AUC(0-inf), MRT(0-t), MRT(0-inf) for Compound 1 and Int 1-4 with gemcitabine.

[7] = mouse, after iv Int 1-4 9.4 mg/kg
[8] = mouse, after iv gemcitabine 5.29 mg/kg
[9] = after iv gemcitabine 5.29 mg/kg
[10] = after iv Int 1-4 5 mg/kg (study f)
[11] = after iv Int 1-4 10 mg/kg (study f)
[12] = after iv Int 1-4 5 mg/kg (study g)
[13] = after iv Int 1-4 10 mg/kg (study g)
[14] = after iv gemcitabine 2.65 mg/kg
[15] = plasma, Sprague-Dawley rat, after iv Int 1-4 10.0 mg/kg
[16] = plasma, Sprague-Dawley rat, after iv gemcitabine 4.47 mg/kg
[17] = 10 mg/kg, after iv Int 1-4 10.0 mg/kg, Formulation 1
[18] = 10 mg/kg, after iv Int 1-4 10.0 mg/kg, Formulation 2
[19] = 11.6 mg/kg, after iv Compound 1 11.6 mg/kg
[20] = 23.2 mg/kg, after iv Compound 1 23.2 mg/kg
[21] = after iv gemcitabine 2.28 mg/kg

Structure (SMILES): Nc1ccn([C@@H]2O[C@H](CO)[C@@H](O)C2(F)F)c(=O)n1 [Gemcitabine, gemcitabine]
- AUC(0-t) [1, 7]: 64.9 ng·h/mL
- half-life [1, 7]: 58.1 min
- AUC(0-inf) ([1]; mouse, after iv Int 1-4 9.4 mg/kg, read-out: AUC0-inf): 74.1 ng·h/mL
- Cmax ([1]; mouse, after iv Int 1-4 9.4 mg/kg, read-out: Cmax): 81.9 ng/mL
- MRT inf [1, 7]: 76.2 min
- MRT last [1, 7]: 52.5 min
- Tmax ([1]; mouse, after iv Int 1-4 9.4 mg/kg, read-out: Tmax): 8.34 min
- C0 [1, 8]: 6430 ng/mL
- clearance [1, 8]: 59 mL/min/kg
- half-life [1, 8]: ~54 min
- MRT inf [1, 8]: 32.5 min
- MRT last [1, 8]: 30.2 min
- Vd ([1]; mouse, after iv gemcitabine 5.29 mg/kg, read-out: Vdss): 1.84 L/kg
- AUC0-inf/AUC0-last ([1]; after iv Int 1-4 9.4 mg/kg): 116%
- AUC0-inf/AUC0-last [1, 9]: 101%
- AUC0-last [1, 9]: 1383 ng·h/mL
- AUC(0-inf) [1, 9]: 1393 ng·h/mL
- T1/2 [1, 9]: 52.1 min
- clearance [2, 10]: 3.71 mL/min/kg
- half-life [2, 10]: 2.82 min
- C0 [2, 10]: 20.5 ng/mL
- MRT inf [2, 10]: 20.5 h
- MRT last [2, 10]: 11.4 min
- Vd [2, 10]: 0.11 L/kg
- clearance [2, 11]: 15.5 mL/min/kg
- half-life [2, 11]: 4.8 min
- C0 [2, 11]: 53.4 ng/mL
- MRT inf [2, 11]: 53.4 h
- MRT last [2, 11]: 18 min
- Vd [2, 11]: 0.19 L/kg
- AUC(0-t) [3, 12]: 5.37 ng·h/mL
- half-life [3, 12]: 9 min
- AUC(0-inf) [3, 12]: 8.13 ng·h/mL
- MRT inf [3, 12]: 14.4 min
- MRT last [3, 12]: 9 min
- Vd [3, 12]: 0.349 L/kg
- AUC(0-t) [3, 13]: 16.2 ng·h/mL
- half-life [3, 13]: 10.8 min
- AUC(0-inf) [3, 13]: 17.5 ng·h/mL
- MRT inf [3, 13]: 15.6 min
- MRT last [3, 13]: 12.6 min
- AUC(0-t) [3, 14]: 154 ng·h/mL
- C0 [3, 14]: 17000 ng/mL
- clearance [3, 14]: 323 mL/min/kg
- half-life [3, 14]: 1.2 min
- AUC(0-inf) [3, 14]: 154 ng·h/mL
- MRT inf [3, 14]: 0.6 min
- MRT last [3, 14]: 0.6 min
- Vd [3, 14]: 0.221 L/kg
- half-life ([4]; plasma, 4.47 mg/kg, plasma, Sprague-Dawley rat, after iv gemcitabine 4.47 mg/kg): ~198 min
- half-life ([4]; plasma, 10 mg/kg, plasma, Sprague-Dawley rat, after iv Int 1-4 10.0 mg/kg): ~566 min
- AUC0-inf/AUC0-last [4, 15]: 235%
- AUC(0-inf) [4, 15]: 6000 ng·h/mL
- AUC(0-t) [4, 15]: 2760 ng·h/mL
- T1/2 [4, 15]: 566 min
- MRT inf [4, 15]: 828 min
- MRT last [4, 15]: 203 min
- clearance ([4]; plasma, Sprague-Dawley rat, after iv gemcitabine): 4.36 mL/min/kg
- AUC0-inf/AUC0-last [4, 16]: 122%
- AUC(0-inf) [4, 16]: 18000 ng·h/mL
- AUC(0-t) [4, 16]: 14700 ng·h/mL
- C0 [4, 16]: 8410 ng/mL
- T1/2 [4, 16]: 196 min
- MRT inf [4, 16]: 278 min
- MRT last [4, 16]: 169 min
- Vd ([4]; plasma, Sprague-Dawley rat, after iv gemcitabine 4.47 mg/kg, read-out: Vdss): 1.21 L/kg
- plasma half-life in rats relative to mice ([4]; rat versus mouse plasma, iv gemcitabine): 3 ×
- AUC(0-t) [5, 17]: 98.6 ng·h/mL
- half-life [5, 17]: 97.2 min
- AUC(0-inf) ([5]; 10 mg/kg, after iv Int 1-4 10.0 mg/kg, Formulation 1, read-out: AUC0-inf): 120 ng·h/mL
- Cmax ([5]; 10 mg/kg, after iv Int 1-4 10.0 mg/kg, Formulation 1, read-out: Cmax): 107 ng/mL
- MRT inf ([5]; 10 mg/kg, after iv Int 1-4 10.0 mg/kg, Formulation 1, read-out: MRT0-inf): 119 min
- MRT last ([5]; 10 mg/kg, after iv Int 1-4 10.0 mg/kg, Formulation 1, read-out: MRT0-last): 69 min
- Tmax ([5]; 10 mg/kg, after iv Int 1-4 10.0 mg/kg, Formulation 1, read-out: Tmax): 3.67 min
- AUC(0-t) [5, 18]: 85.1 ng·h/mL
- half-life [5, 18]: 99.6 min
- AUC(0-inf) ([5]; 10 mg/kg, after iv Int 1-4 10.0 mg/kg, Formulation 2, read-out: AUC0-inf): 102 ng·h/mL
- Cmax ([5]; 10 mg/kg, after iv Int 1-4 10.0 mg/kg, Formulation 2, read-out: Cmax): 93.6 ng/mL
- MRT inf ([5]; 10 mg/kg, after iv Int 1-4 10.0 mg/kg, Formulation 2, read-out: MRT0-inf): 126 min
- MRT last ([5]; 10 mg/kg, after iv Int 1-4 10.0 mg/kg, Formulation 2, read-out: MRT0-last): 75 min
- Tmax ([5]; 10 mg/kg, after iv Int 1-4 10.0 mg/kg, Formulation 2, read-out: Tmax): 2 min
- AUC(0-t) [5, 19]: 97.9 ng·h/mL
- half-life [5, 19]: 62.4 min
- AUC(0-inf) ([5]; 11.6 mg/kg, after iv Compound 1 11.6 mg/kg, read-out: AUC0-inf): 112 ng·h/mL
- Cmax ([5]; 11.6 mg/kg, after iv Compound 1 11.6 mg/kg, read-out: Cmax): 152 ng/mL
- MRT inf ([5]; 11.6 mg/kg, after iv Compound 1 11.6 mg/kg, read-out: MRT0-inf): 84.6 min
- MRT last ([5]; 11.6 mg/kg, after iv Compound 1 11.6 mg/kg, read-out: MRT0-last): 60.6 min
- Tmax ([5]; 11.6 mg/kg, after iv Compound 1 11.6 mg/kg, read-out: Tmax): 1.5 min
- AUC(0-t) [5, 20]: 202 ng·h/mL
- half-life [5, 20]: 61.8 min
- AUC(0-inf) ([5]; 23.2 mg/kg, after iv Compound 1 23.2 mg/kg, read-out: AUC0-inf): 218 ng·h/mL
- Cmax ([5]; 23.2 mg/kg, after iv Compound 1 23.2 mg/kg, read-out: Cmax): 222 ng/mL
- MRT inf ([5]; 23.2 mg/kg, after iv Compound 1 23.2 mg/kg, read-out: MRT0-inf): 84 min
- MRT last ([5]; 23.2 mg/kg, after iv Compound 1 23.2 mg/kg, read-out: MRT0-last): 66.6 min
- Tmax ([5]; 23.2 mg/kg, after iv Compound 1 23.2 mg/kg, read-out: Tmax): 2 min
- AUC(0-t) ([6]; after iv Compound 1 5 mg/kg): 7.85 ng·h/mL
- half-life ([6]; after iv Compound 1 5 mg/kg): 7.8 min
- AUC(0-inf) ([6]; after iv Compound 1 5 mg/kg): 7 ng·h/mL
- MRT inf ([6]; after iv Compound 1 5 mg/kg): 13.8 min
- MRT last ([6]; after iv Compound 1 5 mg/kg): 11.4 min
- AUC(0-t) [6, 21]: 164 ng·h/mL
- C0 [6, 21]: 13400 ng/mL
- clearance [6, 21]: 247 mL/min/kg
- half-life [6, 21]: 1.2 min
- AUC(0-inf) [6, 21]: 165 ng·h/mL
- MRT inf [6, 21]: 1.2 min
- MRT last [6, 21]: 1.2 min
- Vd ([6]; after iv gemcitabine 2.28 mg/kg, read-out: Vdss): 0.231 L/kg

From US11760773B2, “Small molecule drug conjugates of gemcitabine monophosphate” (MaveriX Oncology, Inc., priority 2018, dated 2023)
